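Each compound was tested at five concentrations against cells in 96-well plates for 48 hours. Here, GI50 denotes the concentration required for 50% inhibition of growth. At the TGI there is no net growth.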
Assays:
Assay in all cases: inhibition of tumour cell growth, NCI panel, 48 h
[1] = system: 786-0 renal
[2] = system: A498 renal
[3] = system: A549 NSCLC
[4] = system: ACHN renal
[5] = system: BT-549 breast
[6] = system: CAKI-1 renal
[7] = system: CCRF-CEM leukemia
[8] = system: DU-145 prostate
[9] = system: EKVX NSCLC
[10] = system: HCC-2998 colon
[11] = system: HCT-116 colon
[12] = system: HCT-15 colon
[13] = system: HL-60(TB) leukemia
[14] = system: HOP-62 NSCLC
[15] = system: HOP-92 NSCLC
[16] = system: HS 578T breast
[17] = system: IGROV1 ovarian
[18] = system: K-562 leukemia
[19] = system: KM12 colon
[20] = system: LOX IMVI melanoma
[21] = system: M14 melanoma
[22] = system: MALME-3M melanoma
[23] = system: MCF7 breast
[24] = system: MDA-MB-231 breast
[25] = system: MDA-MB-435
[26] = system: MOLT-4 leukemia
[27] = system: NCI-H226 lung
[28] = system: NCI-H23 lung
[29] = system: NCI-H460 lung
[30] = system: NCI-H522 lung
[31] = system: NCI/ADR-RES ovarian
[32] = system: OVCAR-3 ovarian
[33] = system: OVCAR-4 ovarian
[34] = system: OVCAR-5 ovarian
[35] = system: OVCAR-8 ovarian
[36] = system: PC-3 prostate
[37] = system: RPMI-8226 leukemia
[38] = system: RXF 393 renal
[39] = system: SF-268 CNS
[40] = system: SF-295 CNS
[41] = system: SF-539 CNS
[42] = system: SK-MEL-2 melanoma
[43] = system: SK-MEL-5 melanoma
[44] = system: SN12C renal
[45] = system: SR leukemia
[46] = system: SW-620 colon
[47] = system: TK-10 renal
[48] = system: U251 CNS
[49] = system: UACC-257 melanoma
[50] = system: UACC-62 melanoma
[51] = system: UO-31 renal
[52] = system: COLO 205 colon
[53] = system: HT29 colon
[54] = system: SK-MEL-28 melanoma
[55] = system: SK-OV-3 ovarian
[56] = system: SNB-19 CNS
[57] = system: T-47D breast

SMILES: O=C(CSC(c1ccccc1)c1ccccc1)N/N=C/c1ccc(Cl)cc1Cl
- GI50 [1]: 40.1 µM
- TGI [1]: > 100 µM
- GI50 [2]: 25.6 µM
- TGI [2]: 52.1 µM
- GI50 [3]: 20.5 µM
- TGI [3]: 51.1 µM
- GI50 [4]: 26.6 µM
- TGI [4]: 66.3 µM
- GI50 [5]: 30 µM
- TGI [5]: 75.8 µM
- GI50 [6]: 38.3 µM
- TGI [6]: 83 µM
- GI50 [7]: 31.5 µM
- TGI [7]: > 100 µM
- GI50 [8]: 32.9 µM
- TGI [8]: 93.5 µM
- GI50 [9]: 43.6 µM
- TGI [9]: > 100 µM
- GI50 [10]: 26.9 µM
- TGI [10]: 71 µM
- GI50 [11]: 18.5 µM
- TGI [11]: 44.4 µM
- GI50 [12]: 37.6 µM
- TGI [12]: > 100 µM
- GI50 [13]: 24.4 µM
- TGI [13]: 55.1 µM
- GI50 [14]: 42.3 µM
- TGI [14]: > 100 µM
- GI50 [15]: 31.1 µM
- TGI [15]: 83.4 µM
- GI50 [16]: 34.8 µM
- TGI [16]: > 100 µM
- GI50 [17]: 19.9 µM
- TGI [17]: 53.5 µM
- GI50 [18]: 19 µM
- TGI [18]: 96.6 µM
- GI50 [19]: 16.6 µM
- TGI [19]: 38.9 µM
- GI50 [20]: 27.1 µM
- TGI [20]: 97.4 µM
- GI50 [21]: 29.2 µM
- TGI [21]: 87.2 µM
- GI50 [22]: 16 µM
- TGI [22]: 42 µM
- GI50 [23]: 7.82 µM
- TGI [23]: 29.2 µM
- GI50 [24]: 22.5 µM
- TGI [24]: > 100 µM
- GI50 [25]: 29.6 µM
- TGI [25]: 79.2 µM
- GI50 [26]: 19.6 µM
- TGI [26]: 68.1 µM
- GI50 [27]: 32.6 µM
- TGI [27]: > 100 µM
- GI50 [28]: 21.4 µM
- TGI [28]: 56.9 µM
- GI50 [29]: 20.1 µM
- TGI [29]: 49.8 µM
- GI50 [30]: 12.4 µM
- TGI [30]: 59.2 µM
- GI50 [31]: 35.3 µM
- TGI [31]: > 100 µM
- GI50 [32]: 29.2 µM
- TGI [32]: 83 µM
- GI50 [33]: 38.8 µM
- TGI [33]: > 100 µM
- GI50 [34]: 31.6 µM
- TGI [34]: > 100 µM
- GI50 [35]: 37.9 µM
- TGI [35]: > 100 µM
- GI50 [36]: 31.9 µM
- TGI [36]: > 100 µM
- GI50 [37]: 15.6 µM
- TGI [37]: 41.8 µM
- GI50 [38]: 34.4 µM
- TGI [38]: 89.1 µM
- GI50 [39]: 36.8 µM
- TGI [39]: > 100 µM
- GI50 [40]: 33.6 µM
- TGI [40]: 90.8 µM
- GI50 [41]: 57.7 µM
- TGI [41]: > 100 µM
- GI50 [42]: 18.4 µM
- TGI [42]: 55.8 µM
- GI50 [43]: 18.1 µM
- TGI [43]: 32.7 µM
- GI50 [44]: 15.7 µM
- TGI [44]: 29.9 µM
- GI50 [45]: 17 µM
- TGI [45]: 38.8 µM
- GI50 [46]: 42 µM
- TGI [46]: > 100 µM
- GI50 [47]: 26 µM
- TGI [47]: 72 µM
- GI50 [48]: 24 µM
- TGI [48]: 67.3 µM
- GI50 [49]: 23.1 µM
- TGI [49]: 68.3 µM
- GI50 [50]: 21.9 µM
- TGI [50]: > 100 µM
- GI50 [51]: 18.8 µM
- TGI [51]: 68 µM

SMILES: CC(=O)/C=C/c1ccc(C#Cc2ccccc2)s1
- GI50 [1]: 12.5 µM
- TGI [1]: 25 µM
- GI50 [3]: 15.1 µM
- TGI [3]: 28.5 µM
- GI50 [4]: 16.3 µM
- TGI [4]: 29.8 µM
- GI50 [5]: 13.5 µM
- TGI [5]: 28 µM
- GI50 [6]: 19.3 µM
- TGI [6]: 36.2 µM
- GI50 [7]: 22.2 µM
- TGI [7]: 47.6 µM
- GI50 [52]: 16.9 µM
- TGI [52]: 31 µM
- GI50 [8]: 10.8 µM
- TGI [8]: 24 µM
- GI50 [9]: 17.7 µM
- TGI [9]: 31.6 µM
- GI50 [10]: 14.7 µM
- TGI [10]: 27.8 µM
- GI50 [11]: 3.67 µM
- TGI [11]: 14.9 µM
- GI50 [12]: 15.6 µM
- TGI [12]: 29 µM
- GI50 [14]: 19.7 µM
- TGI [14]: 33.8 µM
- GI50 [16]: 23.9 µM
- TGI [16]: 56.3 µM
- GI50 [53]: 12 µM
- TGI [53]: 25.2 µM
- GI50 [17]: 18.3 µM
- TGI [17]: 32.2 µM
- GI50 [18]: 19.8 µM
- TGI [18]: 56.4 µM
- GI50 [19]: 6.1 µM
- TGI [19]: 36.7 µM
- GI50 [20]: 18 µM
- TGI [20]: 31.9 µM
- GI50 [21]: 15.7 µM
- TGI [21]: 29.1 µM
- GI50 [22]: 20.5 µM
- TGI [22]: 40.7 µM
- GI50 [23]: 7.6 µM
- TGI [23]: 65 µM
- GI50 [24]: 15 µM
- TGI [24]: 28.2 µM
- GI50 [25]: 13.8 µM
- TGI [25]: 29.5 µM
- GI50 [27]: 18.4 µM
- TGI [27]: 36.4 µM
- GI50 [28]: 14.4 µM
- TGI [28]: 27.4 µM
- GI50 [29]: 16.2 µM
- TGI [29]: 33.3 µM
- GI50 [30]: 12.7 µM
- TGI [30]: 25.4 µM
- GI50 [31]: 15.8 µM
- TGI [31]: 33.9 µM
- GI50 [32]: 15.5 µM
- TGI [32]: 29.6 µM
- GI50 [33]: 13.1 µM
- TGI [33]: 28.6 µM
- GI50 [34]: 15.9 µM
- TGI [34]: 29.7 µM
- GI50 [35]: 19 µM
- TGI [35]: 57.3 µM
- GI50 [36]: 15.7 µM
- TGI [36]: 29 µM
- GI50 [37]: 20.7 µM
- TGI [37]: 38 µM
- GI50 [38]: 16.2 µM
- TGI [38]: 33 µM
- GI50 [39]: 17.4 µM
- TGI [39]: 48.9 µM
- GI50 [40]: 19.1 µM
- TGI [40]: 42.7 µM
- GI50 [41]: 17.3 µM
- TGI [41]: 31 µM
- GI50 [42]: 20.5 µM
- TGI [42]: 35.4 µM
- GI50 [54]: 15.5 µM
- TGI [54]: 28.8 µM
- GI50 [43]: 11.1 µM
- TGI [43]: 23.1 µM
- GI50 [55]: 17.3 µM
- TGI [55]: 31.1 µM
- GI50 [44]: 17.1 µM
- TGI [44]: 31.4 µM
- GI50 [56]: 12.7 µM
- TGI [56]: 25.9 µM
- GI50 [46]: 19.4 µM
- TGI [46]: 38.1 µM
- GI50 [57]: 11.4 µM
- TGI [57]: 28.4 µM
- GI50 [47]: 16.8 µM
- TGI [47]: 32.9 µM
- GI50 [48]: 16.8 µM
- TGI [48]: 30.5 µM
- GI50 [49]: 19.1 µM
- TGI [49]: 34.3 µM
- GI50 [50]: 17.5 µM
- TGI [50]: 31.5 µM
- GI50 [51]: 14.3 µM
- TGI [51]: 27.3 µM

Reference: PubChem BioAssay (NCI)
